Results taken from patent US8835478B2, “Treatment for cancer” (Pitney Pharmaceuticals PTY Limited, priority 2005, dated 2014).

Experiments:
SKOV-3 cells = assay: Sulforhodamine B (SRB) cell proliferation assay, 5-day treatment, SKOV-3; assay type: cell-based, human; conditions: 5 days
Method: (§1) Human ovarian carcinoma cell lines OVCAR-3, SKOV-3, 1A9 and 1A9PTX22 were used. OVCAR-3 and SKOV-3 cells were obtained from the American Type Culture Collection (ATCC) and maintained on RPMI medium and McCoy5A medium respectively according to ATCC instructions. 1A9 is a clone of the human ovarian carcinoma cell line, A2780 (Sackett et al., 1997). 1A9PTX22 is a paclitaxel resistant subclone of 1A9 cells, isolated as an individual clone in a single step selection by exposing 1A9 cells to 5 ng/ml paclitaxel in the presence of 5 μg/ml verapamil, a Pgp antagonist (Giannakakou et al., 1997). Cells were maintained in 15 ng/ml paclitaxel and 5 μg/ml verapamil continuously.
(§2) Sulforhodamine B (SRB) colorimetric assay was used to study the effect of albendazole, paclitaxel or their combination on tumour cell cytotoxicity in vitro.
(§3) Cells were harvested from exponential phase cultures by trypsinization, counted and plated in 96-well plates. Optimal seeding densities for each cell line were determined to ensure exponential growth during a 5-day assay. Seeding densities were 5000, 1000, 400 and 3500 cells per well for OVCAR-3, SKOV-3, 1A9 and 1A9PTX22 cells, respectively. […] The plates were left to dry at room temperature and bound protein stain was solubilized with 100 μl 10 mM un-buffered Tris base [tris(hydroxymethyl)aminomethane)] before reading the optical density (OD) at 570 nm. […]

1A9 cells = assay: Sulforhodamine B (SRB) cell proliferation assay, 5-day treatment, 1A9; assay type: cell-based; conditions: Homo sapiens
Method: as §1, §2, §3

1A9PTX22 cells [1] = assay: Sulforhodamine B (SRB) cell proliferation assay, 5-day treatment, 1A9PTX22 (paclitaxel resistant); assay type: cell-based, human; conditions: for effect on cell proliferation: 1A9PTX22
Method: as §1, §2
Cells were harvested from exponential phase cultures by trypsinization, counted and plated in 96-well plates. Optimal seeding densities for each cell line were determined to ensure exponential growth during a 5-day assay. Seeding densities were 5000, 1000, 400 and 3500 cells per well for OVCAR-3, SKOV-3, 1A9 and 1A9PTX22 cells, respectively. Cells plated in 96-well tissue culture plates were treated with 100 μl cell culture medium containing various concentrations of albendazole, paclitaxel or a combination of the two. […] Treatment media were replaced on alternate days. At the end of the treatment period (5 days), wells were assayed for cellular protein content. The SRB assay was performed according to the method described by Skehan et al. (1990) and Papazisis at al. (1997), with minor modifications. The culture medium was aspirated prior to fixation of the cells by the addition of 100 μl 10% cold trichloroacetic acid. After an hour incubation at 4° C., cells were washed five times with water. The cells were then stained with 200 μl 0.4% SRB dissolved in 1% acetic acid for at least 15 min and subsequently washed four times with 1% acetic acid to remove unbound stain. The plates were left to dry at room temperature and bound protein stain was solubilized with 100 μl 10 mM un-buffered Tris base [tris(hydroxymethyl)aminomethane)] before reading the optical density (OD) at 570 nm.
For each of the four cell lines used in this study, sensitivity of each line was initially tested by incubating cells with various concentrations of albendazole or paclitaxel for 5 days. The SRB assay was performed at the end of the treatment period to determine cell response to drug treatment.

1A9PTX22 cells [2] = assay: SRB assay, 72 hours, cross resistance of 1A9PTX22 compared to parent line 1A9; assay type: cell-based, human; conditions: for concentration at which partial resistance of 1A9PTX22 is apparent: 1A9PTX22 vs 1A9, p<0.001; for degree of sensitivity of 1A9PTX22 cells compared to parent cell line 1A9: various concentrations
Method: Cells were harvested from exponential phase cultures by trypsinization, counted and plated in 96-well plates. Optimal seeding densities for each cell line were determined to ensure exponential growth during a 5-day assay. Seeding densities were 5000, 1000, 400 and 3500 cells per well for OVCAR-3, SKOV-3, 1A9 and 1A9PTX22 cells, respectively. Cells plated in 96-well tissue culture plates were treated with 100 μl cell culture medium containing various concentrations of albendazole, paclitaxel or a combination of the two. Both albendazole and paclitaxel were originally made up in absolute ethanol and subsequently diluted with cell culture medium to give the desired drug concentrations with a final ethanol concentration of 1%. Treatment media were replaced on alternate days. At the end of the treatment period (5 days), wells were assayed for cellular protein content. The SRB assay was performed according to the method described by Skehan et al. (1990) and Papazisis at al. (1997), with minor modifications. The culture medium was aspirated prior to fixation of the cells by the addition of 100 μl 10% cold trichloroacetic acid. After an hour incubation at 4° C., cells were washed five times with water. The cells were then stained with 200 μl 0.4% SRB dissolved in 1% acetic acid for at least 15 min and subsequently washed four times with 1% acetic acid to remove unbound stain. The plates were left to dry at room temperature and bound protein stain was solubilized with 100 μl 10 mM un-buffered Tris base [tris(hydroxymethyl)aminomethane)] before reading the optical density (OD) at 570 nm.
1A9 and 1A9PTX22 cells plated in 96-well tissue culture plates were treated with 100 μl cell culture medium containing various concentrations of vincristine and colchicine for 72 hours and SRB assays conducted as described above. As for paclitaxel (see Example 1), both vincristine and colchicine were originally made up in absolute ethanol and subsequently diluted with cell culture medium to give the desired drug concentrations with a final ethanol concentration of 1%. The results are illustrated in FIGS. 5A (vincristine) and 5B (colchicine). […] The partial resistance of 1A9PTX22 is apparent for vincristine at concentrations of 5 nM and above and for colchicine at 100 nM and above (p<0.001).

Q: `CCCSc1ccc2nc(NC(=O)OC)[nH]c2c1` [albendazole] was tested. Which “reduction in cell proliferation” value (SKOV-3 cells; 0.25 μM albendazole alone) did it give?
A: 48.4%

Q: What about the inhibition at 0.1 µM (1A9 cells; 1A9, 120 h, read-out: inhibition of proliferation) of the same compound?
A: 11.8%

Q: And the “sensitivity of 1A9PTX22 compared to the parent line (1A9)” value (1A9PTX22 cells [1]; 1A9PTX22 vs 1A9, various concentrations, 5 days)?
A: even more sensitive

Q: And the inhibition at 1 µM (1A9PTX22 cells [1]; Homo sapiens, 1A9/ptx-22, 120 h, read-out: inhibitory effect on proliferation)?
A: 53%

Q: For `COc1cc2c(c(OC)c1OC)-c1ccc(OC)c(=O)cc1[C@@H](NC(C)=O)CC2` [colchicine], which “concentration at which partial resistance of 1A9PTX22 is apparent” value (1A9PTX22 cells [2]) is on record?
A: ≥ 100 nM

Q: And the “degree of sensitivity of 1A9PTX22 cells compared to parent cell line 1A9” value (1A9PTX22 cells [2])?
A: significantly reduced

Q: What does the source list for `CC(=O)O[C@H]1C(=O)[C@@]2(C)[C@H]([C@H](OC(=O)c3ccccc3)[C@]3(O)C[C@H](OC(=O)[C@H](O)[C@@H](NC(=O)c4ccccc4)c4ccccc4)C(C)=C1C3(C)C)[C@]1(OC(C)=O)CO[C@@H]1C[C@@H]2O` [paclitaxel]?
A: inhibition at 10 pM (SKOV-3 cells; Homo sapiens, SK-OV-3, 120 h, 0.01 nM paclitaxel alone): 14.5%; inhibition at 0.0001 µM (1A9 cells; 120 h, 1A9, 0.1 nM paclitaxel alone, 5 days): 21.8%; effect on cell proliferation (1A9PTX22 cells [1]; 1.0 nM paclitaxel alone, 5 days): not affected; effect on cell proliferation (1A9PTX22 cells [1]; 5.0 nM paclitaxel alone, 5 days): not affected; increase in paclitaxel concentration required in paclitaxel-resistant cell lines for a response similar to paclitaxel-sensitive cells (1A9PTX22 cells [1]; paclitaxel alone, resistant vs sensitive cells): approximately 50 fold

Q: How did the “concentration at which partial resistance of 1A9PTX22 is apparent” value (1A9PTX22 cells [2]) turn out when `CC[C@]1(O)C[C@H]2CN(CCc3c([nH]c4ccccc34)[C@@](C(=O)OC)(c3cc4c(cc3OC)N(C=O)[C@H]3[C@@](O)(C(=O)OC)[C@H](OC(C)=O)[C@]5(CC)C=CCN6CC[C@]43[C@@H]65)C2)C1` [vincristine] was run?
A: ≥ 5 nM

Q: What about the “degree of sensitivity of 1A9PTX22 cells compared to parent cell line 1A9” value (1A9PTX22 cells [2]) of the same compound?
A: significantly reduced
